EPA's ToxValDB 9.5 (doi:10.2903/j.efsa.2007.117r)
In brackets after ≈: the same amount, converted by molar mass.

What was measured:
Bibionidae = conditions: chronic/long-term; duration: 24 days; reproduction
Apis mellifera = conditions: acute; duration: 48 hours; oral; unspecified; mortality
Daphnia magna = conditions: chronic/long-term; duration: 21 days; reproduction
Oryctolagus sp. = conditions: reproduction developmental; reproduction
Aphidius rhopalosiphi = conditions: chronic/long-term; mortality
Canidae = conditions: subchronic; duration: 90 days; oral; Dog Other
Tagia sp. = conditions: acute; duration: 14 days; mortality
Bird = conditions: for LD50: oral, mortality

NC1=C(Cl)C(=O)c2ccccc2C1=O [2-Amino-3-chloro-1,4-naphthoquinone]
NOEC (Bibionidae): 0.063 mg/L | LD50 (Apis mellifera): > 28 µg/piece | NOEC (Daphnia magna): 0.0021 mg/L | NOAEL (Oryctolagus sp.): 17.5 mg/kg-day | LD50 (Rattus norvegicus; acute, oral, mortality): 500 mg/kg-day | NOAEL (Rattus norvegicus; chronic, duration: 2 years, organ weight): 0.21 mg/kg-day | NOAEL (Rattus norvegicus; reproduction developmental, body weight): 5 mg/kg-day | LC50 (Oncorhynchus mykiss; acute, duration: 96 hours, mortality): 0.063 µg/mL (≈ 0.303 µM) | NOEC (Oncorhynchus mykiss; chronic/long-term, duration: 21 days, behavior): 0.02 mg/L | LEL (Aphidius rhopalosiphi): 3810 g/ha | NOAEL (Canidae): 3 mg/kg-day | LC50 (Tagia sp.): 125 mg/kg | LD50 (Bird; acute, unspecified): > 2000 mg/kg-day | NOAEL (Bird; chronic/long-term): 36.2 mg/kg-day | LD50 (Bird; short-term, feed): 394 mg/kg-day
